EC50 and CC50 data for four molecules are collected here from patent US12030904B2 (priority 2020, dated 2024).

Like-named read-outs stand apart in the source and are kept apart here.

Series [1] deals with Recombinant Respiratory Syncytial virus strain A2 containing the firefly luciferase reporter (RSV-Fluc). As to the kind of experiment: microbe, parasite or virus in culture. In kind it is cell-based.
A further series concerns SARS-CoV-2. Description: microbe, parasite or virus in culture. In kind it is cell-based.
The next series relates to MT4. Description: MT4 cytotoxicity (CC50). As to conditions: read-out: MT4 CC50; Table 2a.
Series [2] can be described thus: A549 cytotoxicity analysis (CellTiter-Glo). The settings on record: human, A549 cells; Table 3. In kind it is cell-based. The protocol: The cytotoxicity of compounds was determined in A549 cells in the following manner. Compounds (40 nL) were spotted onto 384-well Grenier plates prior to seeding 5000 A549 cells/well in a volume of 40 μL culture medium. The plates were incubated at 37° C. for 48 hours with 5% CO2. On day 2, 40 μL of CellTiter-Glo (Promega) was added and mixed 5 times. Plates were read for luminescence on an Envision (PerkinElmer) and the CC50 (compound concentration for reducing 50% of luminescence signal as a measure of cell viability) were calculated using a nonlinear regression model (four parameters). Two experiments were performed with technical duplicates.
(Cellular ATP, detected with luciferase, serves as a proxy for viable cell number.)

Another series in a line: MT4 cytotoxicity (CC50). As to conditions: human, MT4 cells, MT4 CC50, Table 2a.
Setting [3] is: human respiratory syncytial virus, NHBE, 72 h, read-out: RSV-Fluc EC50 (NHBE), NHBE cells, three days, Table 2.
The mark [4] stands for this setting: human respiratory syncytial virus, NHBE, read-out: RSV EC50, Table 2a.
[5] abbreviates: Severe acute respiratory syndrome coronavirus 2, Table 3, read-out: SARS-CoV-2 EC50.
The mark [6] stands for this setting: Severe acute respiratory syndrome coronavirus 2, read-out: SARS EC50.

Consider `CCCCCCCCCCCCCCCCCCOC[C@H](COP(=O)(O)OC[C@H]1O[C@@](C#N)(c2ccc3c(N)ncnn23)[C@H](O)[C@@H]1O)OC(C)c1ccccc1` (single isomer, unassigned) [Example 28], for which the EC50 (usually the midpoint of the concentration-response curve) came out at 75 nM in series [1] (read-out: RSV EC50, Table 2a); 70 nM in series [1] (read-out: RSV-Fluc EC50 (NHBE), NHBE cells, three days, Table 2); 2300 nM in the series on SARS-CoV-2 (read-out: SARS EC50). In addition, the 50% cytotoxic concentration (CC50) (as a rule, the concentration that lowers cell viability or growth by half) in the series on MT4 worked out at 1060 nM.

On to `CCCCCCCC/C=C\CCCCCCCCOC[C@H](COP(=O)(O)OC[C@H]1O[C@@](C#N)(c2ccc3c(N)ncnn23)[C@H](O)[C@@H]1O)OCc1cc(F)cc(C#N)c1` [Example 69, ((2R,3S,4R,5R)-5-(4-aminopyrrolo[2,1-f][1,2,4]triazin-7-yl)-5-cyano-3,4-dihydroxytetrahydrofuran-2-yl)methyl ((R)-2-((3-cyano-5-fluorobenzyl)oxy)-3-(((Z)-octadec-9-en-1-yl)oxy)propyl) hydrogen phosphate], for which the EC50 in series [1] (setting [3]) came out at 24 nM; in series [1] (setting [4]), 23 nM; with SARS-CoV-2 (setting [5]), 150 nM; with SARS-CoV-2 (setting [6]), 150 nM. In series [2], this molecule had a CC50 at 48 h of 860 nM. Further, half-maximal cytotoxicity in “MT4 cytotoxicity (CC50)” (CC50) was put at 730 nM.

Turning to `CCCCCCCCCCCCCCCCOC[C@H](COP(=O)(O)OC[C@H]1O[C@@](C#N)(c2ccc3c(N)ncnn23)[C@H](O)[C@@H]1O)OCc1cc(F)cc(C#N)c1` [Example 71, ((2R,3S,4R,5R)-5-(4-aminopyrrolo[2,1-f][1,2,4]triazin-7-yl)-5-cyano-3,4-dihydroxytetrahydrofuran-2-yl)methyl ((R)-2-((3-cyano-5-fluorobenzyl)oxy)-3-(hexadecyloxy)propyl) hydrogen phosphate], the EC50 was determined as 30 nM in series [1] (setting [3]), 3 nM in series [1] (setting [4]), 130 nM in the series on SARS-CoV-2 (setting [5]) and 130 nM with SARS-CoV-2 (setting [6]). The molecule also showed a CC50 at 48 h in series [2] of 370 nM. The CC50 in the series “MT4 cytotoxicity (CC50)” was 404 nM.

Regarding `CCCCCCCCCCCCCCCCCCOC[C@H](COP(=O)(O)OC[C@H]1O[C@@](C#N)(c2ccc3c(N)ncnn23)[C@H](O)[C@@H]1O)Oc1ccc(C#N)c(OC(C)C)c1` [Example 72, ((2R,3S,4R,5R)-5-(4-aminopyrrolo[2,1-f][1,2,4]triazin-7-yl)-5-cyano-3,4-dihydroxytetrahydrofuran-2-yl)methyl ((R)-2-(4-cyano-3-isopropoxyphenoxy)-3-(octadecyloxy)propyl) hydrogen phosphate], the EC50 stood at 8 nM in series [1] (setting [3]), 17 nM in series [1] (setting [4]) and 8350 nM in the series on SARS-CoV-2 (setting [6]). Also, the CC50 at 48 h in series [2] was 240 nM. The molecule also displayed a half-maximal cytotoxic concentration (CC50) in the series “MT4 cytotoxicity (CC50)” of 279 nM.
